Laboratory results: ChEMBL document CHEMBL3865840, “Minimizing CYP2C9 Inhibition of Exposed-Pyridine NAMPT (Nicotinamide Phosphoribosyltransferase) Inhibitors” (J Med Chem, 2016)
pIC50: −log10 of the molar value.

How the values were obtained:
[1] = Octanol-aqueous phosphate buffer distribution coefficient, log D of the compound at pH 7.4 after 1 hr by LC/MS/MS analysis; assay type: physicochemical
Cytochrome P450 2C9 = Cytochrome P450 2C9 (Homo sapiens, UniProt P11712)
[2] = Apparent permeability from basolateral to apical side in MDCK cells at 10 uM by LC/MS/MS analysis; assay type: ADME, cell-based, Canis lupus familiaris; settings: dog
[3] = Apparent permeability from apical to basolateral side in MDCK cells at 10 uM by LC/MS/MS analysis; assay type: ADME, cell-based, Canis lupus familiaris; settings: dog
Cytochrome P450 2D6 = Cytochrome P450 2D6 (Homo sapiens, UniProt P10635)
Sequence of Cytochrome P450 2D6 (P10635 whole entry): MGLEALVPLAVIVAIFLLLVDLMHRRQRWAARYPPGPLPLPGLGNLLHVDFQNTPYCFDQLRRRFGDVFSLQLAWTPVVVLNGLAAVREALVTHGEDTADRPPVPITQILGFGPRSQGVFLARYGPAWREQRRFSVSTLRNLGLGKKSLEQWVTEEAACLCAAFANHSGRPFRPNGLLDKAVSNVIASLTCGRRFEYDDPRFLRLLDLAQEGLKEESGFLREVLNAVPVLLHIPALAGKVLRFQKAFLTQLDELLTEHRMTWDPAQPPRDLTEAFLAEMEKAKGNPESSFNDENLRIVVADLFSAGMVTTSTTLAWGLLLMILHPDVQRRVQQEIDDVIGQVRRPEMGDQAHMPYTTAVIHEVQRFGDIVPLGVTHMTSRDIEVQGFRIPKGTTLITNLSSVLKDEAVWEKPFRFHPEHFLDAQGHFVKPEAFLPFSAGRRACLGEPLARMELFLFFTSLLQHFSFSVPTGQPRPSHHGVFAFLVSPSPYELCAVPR

Cytochrome P450 2C19 = Cytochrome P450 2C19 (Homo sapiens, UniProt P33261)
Sequence of Cytochrome P450 2C19 (P33261 whole entry): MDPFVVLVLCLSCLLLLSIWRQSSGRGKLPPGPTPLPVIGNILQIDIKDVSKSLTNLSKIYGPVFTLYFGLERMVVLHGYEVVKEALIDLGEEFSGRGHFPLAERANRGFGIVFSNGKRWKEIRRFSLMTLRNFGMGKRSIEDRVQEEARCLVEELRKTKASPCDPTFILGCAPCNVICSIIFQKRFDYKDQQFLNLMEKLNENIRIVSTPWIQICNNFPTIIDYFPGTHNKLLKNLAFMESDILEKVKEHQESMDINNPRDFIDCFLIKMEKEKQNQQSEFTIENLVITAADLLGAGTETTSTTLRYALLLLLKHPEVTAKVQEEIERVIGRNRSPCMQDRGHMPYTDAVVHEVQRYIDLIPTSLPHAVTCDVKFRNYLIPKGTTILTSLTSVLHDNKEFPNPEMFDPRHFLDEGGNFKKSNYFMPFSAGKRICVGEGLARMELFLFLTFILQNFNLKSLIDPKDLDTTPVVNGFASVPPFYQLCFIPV

Cytochrome P450 3A4 [4] = molecular target: T1, Cytochrome P450 3A4 (Homo sapiens, UniProt P08684); assay: Time dependent inhibition of CYP3A4 in human liver microsomes assessed as substrate AUC shift using testosterone as substrate; assay type: ADME; set-up: scale not given: the % may be the effect or the level left
T1 sequence (P08684 whole entry): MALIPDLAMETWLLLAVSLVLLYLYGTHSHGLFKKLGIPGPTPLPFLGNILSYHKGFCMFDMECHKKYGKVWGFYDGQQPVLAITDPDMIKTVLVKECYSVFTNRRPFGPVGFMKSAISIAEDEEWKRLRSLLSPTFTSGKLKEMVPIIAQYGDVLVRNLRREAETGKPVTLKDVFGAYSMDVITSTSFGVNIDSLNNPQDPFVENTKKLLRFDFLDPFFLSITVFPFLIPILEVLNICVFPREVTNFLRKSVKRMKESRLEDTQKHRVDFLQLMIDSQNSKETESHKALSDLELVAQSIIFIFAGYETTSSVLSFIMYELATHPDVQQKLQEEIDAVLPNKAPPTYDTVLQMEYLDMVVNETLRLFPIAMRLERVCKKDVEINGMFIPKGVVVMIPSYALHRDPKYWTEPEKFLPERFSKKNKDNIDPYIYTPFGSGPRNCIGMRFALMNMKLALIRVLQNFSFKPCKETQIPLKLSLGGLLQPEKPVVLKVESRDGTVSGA

Cytochrome P450 3A4 [5] = molecular target: T1, Cytochrome P450 3A4; assay: Time dependent inhibition of CYP3A4 in human liver microsomes assessed as substrate AUC shift using midazolam as substrate; assay type: ADME; set-up: scale not given: the % may be the effect or the level left
Cytochrome P450 1A2 = molecular target: T2, Cytochrome P450 1A2 (Homo sapiens, UniProt P05177)
T2 sequence (P05177 whole entry): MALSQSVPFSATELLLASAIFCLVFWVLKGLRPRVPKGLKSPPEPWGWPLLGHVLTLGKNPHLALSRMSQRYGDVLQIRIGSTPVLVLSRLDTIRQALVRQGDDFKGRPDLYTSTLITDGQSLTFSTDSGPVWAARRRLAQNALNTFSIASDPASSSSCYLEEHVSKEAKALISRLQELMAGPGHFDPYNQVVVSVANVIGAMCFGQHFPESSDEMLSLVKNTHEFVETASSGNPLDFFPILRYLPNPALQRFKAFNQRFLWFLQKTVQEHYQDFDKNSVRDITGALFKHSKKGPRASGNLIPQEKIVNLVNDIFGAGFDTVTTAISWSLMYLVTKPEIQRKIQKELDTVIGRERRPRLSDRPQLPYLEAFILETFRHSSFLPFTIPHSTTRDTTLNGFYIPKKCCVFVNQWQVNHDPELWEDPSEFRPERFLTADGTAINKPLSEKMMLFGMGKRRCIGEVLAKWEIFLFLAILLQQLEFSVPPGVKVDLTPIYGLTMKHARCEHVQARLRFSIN

Sequence of Cytochrome P450 2C9 (P11712 whole entry): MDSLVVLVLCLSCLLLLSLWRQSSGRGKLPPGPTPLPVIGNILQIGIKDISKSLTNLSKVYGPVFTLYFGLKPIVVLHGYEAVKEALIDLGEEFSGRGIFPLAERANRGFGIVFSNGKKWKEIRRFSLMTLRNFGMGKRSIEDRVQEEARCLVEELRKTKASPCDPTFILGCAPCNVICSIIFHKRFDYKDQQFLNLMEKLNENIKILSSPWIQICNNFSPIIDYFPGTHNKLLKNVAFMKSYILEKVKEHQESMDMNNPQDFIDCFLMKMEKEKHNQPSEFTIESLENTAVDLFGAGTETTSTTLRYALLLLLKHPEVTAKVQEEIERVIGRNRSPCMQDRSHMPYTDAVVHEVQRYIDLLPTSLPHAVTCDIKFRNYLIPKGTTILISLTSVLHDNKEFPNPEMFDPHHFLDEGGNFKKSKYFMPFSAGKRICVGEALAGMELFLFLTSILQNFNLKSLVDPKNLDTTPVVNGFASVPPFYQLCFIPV

| Compound | pIC50 (Cytochrome P450 2C9) | Papp B→A at 10 µM [2] | Papp A→B at 10 µM [3] | also measured |
| --- | --- | --- | --- | --- |
| CS(=O)(=O)c1ccc(CNC(=O)c2cc3cnccc3[nH]2)cc1 | 6.70 | – | – | logD at 1 h [1]: 0.8 |
| CCOC(=O)N1CCC2(CC1)CC2CNC(=O)N1Cc2ccncc2C1 (racemic) | < 5.00 | – | – | – |
| O=C(NCc1ccc([S@@+]([O-])c2cc(F)cc(F)c2)cn1)c1cc2ccncc2o1 | – | 9 ×10⁻⁶ cm/s | 21 ×10⁻⁶ cm/s | logD at 1 h [1]: 2 |
| CC(C)(C)OC(=O)N1CCC2(CC1)CC2CNC(=O)c1cc2ccncc2s1 (racemic) | 5.14 | – | – | – |
| CN1CCC(c2ccc(C(=O)N3CCC4(CC3)CC4CNC(=O)N3Cc4ccncc4C3)cc2)CC1 (racemic) | < 5.00 | 1 ×10⁻⁶ cm/s | 0.2 ×10⁻⁶ cm/s | – |
| O=C(CCC1CCOCC1)N1CCC2(CC1)CC2CNC(=O)N1Cc2ccncc2C1 (racemic) | < 5.00 | 11 ×10⁻⁶ cm/s | 1.6 ×10⁻⁶ cm/s | – |
| O=C(NCc1ccccc1)c1cc2cnccc2[nH]1 | < 5.00 | – | – | logD at 1 h [1]: 2.2 |
| CC(C)(C)OC(=O)N1CCC(CCNC(=O)c2cc3cnccc3[nH]2)CC1 | < 5.00 | – | – | – |
| [2H]C1([2H])c2ccncc2C([2H])([2H])N1C(=O)NCC1CC12CCN(C(=O)OC1(C)COC1)CC2 (racemic) | < 5.00 | – | – | – |
| Nc1cc2c(cn1)CN(C(=O)NCc1ccc(S(=O)(=O)c3ccccc3)cc1)C2 | < 5.00 | – | – | – |
| NS(=O)(=O)c1ccc(CNC(=O)c2cc3cnccc3[nH]2)cc1 | 6.47 | – | – | logD at 1 h [1]: 0.6 |
| CC(C)(C)NC(=O)N1CCC2(CC1)CC2CNC(=O)N1Cc2ccncc2C1 (racemic) | < 5.00 | – | – | – |
| Cc1nc(C)c(C(=O)N2CCC3(CC2)CC3CNC(=O)N2Cc3ccncc3C2)s1 (racemic) | – | 11 ×10⁻⁶ cm/s | 1.4 ×10⁻⁶ cm/s | – |
| CC(C)(C)OC(=O)N1CCC2(CCC(CNC(=O)c3cc4cnccc4[nH]3)OC2)CC1 (racemic) | < 5.00 | – | – | – |
| CC(C)(C)OC(=O)N1CCC2(CC1)CC2CNC(=O)c1cnc2nccn2c1 (racemic) | < 5.00 | – | – | – |
| Cc1nn(C)cc1C(=O)N1CCC2(CC1)CC2CNC(=O)N1Cc2ccncc2C1 (racemic) | – | 1.1 ×10⁻⁶ cm/s | 0.2 ×10⁻⁶ cm/s | – |
| CC1(CC(=O)N2CCC3(CC2)CC3CNC(=O)N2Cc3ccncc3C2)CCOCC1 (racemic) | < 5.00 | 9.1 ×10⁻⁶ cm/s | 1 ×10⁻⁶ cm/s | – |
| O=C(CCC(F)(F)F)N1CCC2(CC1)CC2CNC(=O)N1Cc2ccncc2C1 (racemic) | < 5.00 | – | – | – |
| O=C(NCC1CC12CCN(C(=O)c1ccccc1)CC2)N1Cc2ccncc2C1 (racemic) | < 5.00 | 19 ×10⁻⁶ cm/s | 7.9 ×10⁻⁶ cm/s | – |
| O=C(NCC1CCCCC1)c1cc2cnccc2[nH]1 | < 5.00 | – | – | logD at 1 h [1]: 3.1 |
| O=C(NCc1ccc(S(=O)(=O)c2cc(F)cc(F)c2)cn1)c1cc2ccncc2o1 | – | – | – | logD at 1 h [1]: 2.6 |
| Cc1ccncc1C(=O)N1CCC2(CC1)CC2CNC(=O)N1Cc2ccncc2C1 (racemic) | – | 2.7 ×10⁻⁶ cm/s | 0.3 ×10⁻⁶ cm/s | – |
| Cc1c(C(=O)N2CCC3(CC2)CC3CNC(=O)N2Cc3ccncc3C2)cnn1C (racemic) | – | 2.6 ×10⁻⁶ cm/s | 0.3 ×10⁻⁶ cm/s | – |
| CC(C)(C)OC(=O)N1CCCC(CCNC(=O)c2cc3cnccc3[nH]2)C1 (racemic) | 5.47 | – | – | – |
| CC1(CC(=O)N2CCC3(CC2)CC3CNC(=O)N2Cc3ccncc3C2)COC1 (racemic) | < 5.00 | 4 ×10⁻⁶ cm/s | 1.4 ×10⁻⁶ cm/s | – |
| CN(C)C(=O)c1cccc(COc2ccc(CNC(=O)c3cc4cnccc4[nH]3)cc2)c1 | 6.40 | – | – | logD at 1 h [1]: 2.5 |

| Compound | pIC50 (Cytochrome P450 2C9) | Papp B→A at 10 µM [2] | Papp A→B at 10 µM [3] | also measured |
| --- | --- | --- | --- | --- |
| Nc1cc2cc(C(=O)NCc3ccc(S(=O)(=O)c4ccccc4)cc3)oc2cn1 | 5.41 | – | – | – |
| CC(C)CNC(=O)c1cc2cnccc2[nH]1 | < 5.00 | – | – | logD at 1 h [1]: 1.7 |
| CC(C)(C)OC(=O)N1CCC2(CC1)CC2CNC(=O)c1cc2cnccc2[nH]1 (racemic) | < 5.00 | 14 ×10⁻⁶ cm/s | 15 ×10⁻⁶ cm/s | – |
| CC(C)OC(=O)N1CCC2(CC1)CC2CNC(=O)N1Cc2ccncc2C1 (racemic) | < 5.00 | 14 ×10⁻⁶ cm/s | 13 ×10⁻⁶ cm/s | – |
| O=C(NCc1ccc(NS(=O)(=O)C2CCCC2)cc1)c1cc2cnccc2[nH]1 | 6.44 | – | – | logD at 1 h [1]: 2.5 |
| O=C(NCc1ccc(C(=O)N2CCCC2)cc1)c1cc2cnccc2[nH]1 | 6.35 | – | – | logD at 1 h [1]: 1.6 |
| Cc1nn(C)c(C)c1C(=O)N1CCC2(CC1)CC2CNC(=O)N1Cc2ccncc2C1 (racemic) | < 5.00 | 1.9 ×10⁻⁶ cm/s | 0.2 ×10⁻⁶ cm/s | – |
| O=C(CC1CCOCC1)N1CCC2(CC1)CC2CNC(=O)N1Cc2ccncc2C1 (racemic) | – | 7 ×10⁻⁶ cm/s | 1.4 ×10⁻⁶ cm/s | – |
| O=C(NCC1CC12CCN(CCc1ccccc1)CC2)N1Cc2ccncc2C1 (racemic) | < 5.00 | – | – | – |
| CC1(O)CC(CC(=O)N2CCC3(CC2)CC3CNC(=O)N2Cc3ccncc3C2)C1 (racemic) | – | 1 ×10⁻⁶ cm/s | 0.2 ×10⁻⁶ cm/s | – |
| CC(C)(C)CC(=O)N1CCC2(CC1)CC2CNC(=O)N1Cc2ccncc2C1 (racemic) | < 5.00 | 13 ×10⁻⁶ cm/s | 9.2 ×10⁻⁶ cm/s | – |
| Cc1nc(C)c(C(=O)N2CCC3(CC2)CC3CNC(=O)N2Cc3ccncc3C2)o1 (racemic) | – | 9 ×10⁻⁶ cm/s | 1.4 ×10⁻⁶ cm/s | – |
| O=C(/C=C/c1cccnc1)NCCCCC1CCN(C(=O)c2ccccc2)CC1 [DAPORINAD] | 5.44 | – | – | pIC50 (Cytochrome P450 2D6): < 5.00; pIC50 (Cytochrome P450 2C19): < 5.00 |
| CC1(OC(=O)N2CCC3(CC2)CC3CNC(=O)N2Cc3ccncc3C2)COC1 (racemic) | < 5.00 | 16 ×10⁻⁶ cm/s | 11 ×10⁻⁶ cm/s | – |
| CC1(OC(=O)N2CCC3(CC2)C[C@H]3CNC(=O)N2Cc3ccncc3C2)COC1 | – | 15 ×10⁻⁶ cm/s | 11 ×10⁻⁶ cm/s | – |
| Cc1ccc(CNC(=O)Nc2ccc(S(=O)(=O)c3ccccc3)cc2)cn1 | – | – | – | logD at 1 h [1]: 2.4 |
| CC1(OC(=O)N2CCC3(CC2)CC3CNC(=O)N2Cc3ccncc3C2)CCC1 (racemic) | < 5.00 | 12 ×10⁻⁶ cm/s | 15 ×10⁻⁶ cm/s | – |
| O=C(NCc1cccnc1)Nc1ccc(S(=O)(=O)N2CCC3(CCNC3)CC2)cc1 | – | 0.43 ×10⁻⁶ cm/s | – | logD at 1 h [1]: < -0.5 |
| Nc1cc2[nH]c(C(=O)NCc3ccc(S(=O)(=O)c4cc(F)cc(F)c4)cc3)cc2cn1 | < 5.00 | – | – | Activity (Cytochrome P450 3A4 [4]): 69%; Activity (Cytochrome P450 3A4 [5]): 83% |
| CC(C)(C)OC(=O)N1CCC2(CC1)CC2CNC(=O)c1cc2ccncc2o1 (racemic) | < 5.00 | 15 ×10⁻⁶ cm/s | 16 ×10⁻⁶ cm/s | – |
| O=C(NCc1ccc(S(=O)(=O)C2CCCCC2)cc1)N1Cc2ccncc2C1 | – | – | – | logD at 1 h [1]: 2 |
| N#CN=C(NCCCCCCOc1ccc(Cl)cc1)Nc1ccncc1 [CHS-828] | – | – | – | pIC50 (Cytochrome P450 2C19): 6.20; pIC50 (Cytochrome P450 1A2): < 5.00 |
| CC(C)CC(=O)N1CCC2(CC1)CC2CNC(=O)N1Cc2ccncc2C1 (racemic) | < 5.00 | 14 ×10⁻⁶ cm/s | 7.3 ×10⁻⁶ cm/s | – |
| O=C(NCc1cccnc1)Nc1ccc(S(=O)(=O)c2ccccc2)cc1 | – | 11 ×10⁻⁶ cm/s | 3.1 ×10⁻⁶ cm/s | logD at 1 h [1]: 2.7 |
| Nc1ccc(CNC(=O)Nc2ccc(S(=O)(=O)c3ccccc3)cc2)cn1 | – | 5.5 ×10⁻⁶ cm/s | 3 ×10⁻⁶ cm/s | logD at 1 h [1]: 2.7; Activity (Cytochrome P450 3A4 [4]): 45%; Activity (Cytochrome P450 3A4 [5]): 34% |
